# Test results as given in patent US20160015034A1, “Co-Crystals of Pyrimethanil and Selected Dithiine Tetracarboximide” (BASF SE, priority 2013, published 2016).
# What was measured:
# [1] = Isothermal TGA volatility study; format: physicochemical; conditions: isothermal TGA at 100 C., nitrogen flow, weight loss monitored for 12 hours
# Description: Isothermal Analysis of the Co-Crystals
# TG/DTA measurement was carried out on a Seiko TG/DTA 7200 instrument. An open aluminium pan was used and the measurement was carried out under nitrogen flow with a sample weight of 5 to 10 mg. The isothermal TGA for volatility studies were performed at 100 C. and the weight loss was monitored for 12 hours.
# [2] = Water solubility by slurry equilibration and HPLC; format: physicochemical; conditions: pH 7, aqueous buffer, thermodynamic from solid
# Description: Water Solubility of the Co-Crystals
# The determination of the amount of the actives in solution was performed on HPLC ACQUITY (Water) system, equipped with PDA—230 nm UV detector and Sample Manager auto-injector.
# Waters' Enpower software was used to record the chromatograms and to calculate the chromatographic parameters. Gradient elution (Acetonitrile—0.1% H3PO4) was achieved using C18 column, 50×2.1 mm, 1.7 μm BEH. Injection volume was set 1 μL by auto injector. The analysis were performed with rate flux of 0.4 ml/min. UV detection was performed at 245 nm. Peak identities were confirmed by spectrum and retention time comparison. All the analyses were performed at room temperature. All the analyzed solutions were prepared by slurry equilibration experiments. Particularly, water suspensions (KH2PO4/NaOH buffer having pH value of 7) of dithiine, pyrimethanil and the co-crystals were slurried for 1 hour, according with the maximum value of the intrinsic dissolution profile of the pure active. After 60 minutes small samples of about 1.0 ml were recovered with a syringe and filtered through a 0.1 micrometer PVDF Millipore filtration unit. Both solid phase and liquid phase were analyzed by XRPD and HPLC, respectively.
SMILES,TGA Volatility (% weight loss per minute) [1],solubility at 1 h [2] [µg/mL]
Cn1c(=O)c2sc3c(=O)n(C)c(=O)c3sc2c1=O,5.45 × 10^−3 % weight loss per minute,2
Cc1cc(C)nc(Nc2ccccc2)n1 [pyrimethanil],1.20 × 10^−2 % weight loss per minute,58
